The values below come from patent US7582645B2, “Pyrimidine derivatives for treatment of hyperproliferative disorders” (Bayer Pharmaceuticals Corporation, priority 2003, dated 2009).

Structures can show the parent of a compound that is named as a salt.

One test relates to HCT116 cells. Briefly: HCT116 cytotoxic activity assay (Alamar Blue, 72 h). The test is classed as cell-based. The settings on record: Homo sapiens, HCT-116, 72 h compound exposure, greater than 500 nM but less than or equal to 2 μM. Here is the method: Representative compounds of this invention were tested for cytotoxicity using the above-described assay procedure with the following results: […]
Background: Resazurin is reduced to fluorescent resorufin, in cell work by metabolically active cells.
Take `COc1ccc(-c2cc(Nc3ccc(Oc4ccnc(C#N)c4)cc3)nc(N)n2)cc1N` [Example 172, 4-(4-{[2-amino-6-(3-amino-4-methoxyphenyl)pyrimidin-4-yl]amino}phenoxy)pyridine-2-carbonitrile]: the IC50 – broadly, the concentration needed to halve the response being measured – fell in the range of 500 to 2000 nM.
On the same count and under the same terms, the same measure for `Nc1nc(Nc2ccc(Oc3ccnc(C(F)(F)F)c3)cc2)cc(-c2ccc(O)cc2C(F)(F)F)n1` [Example 176, 4-{2-amino-6-[(4-{[2-(trifluoromethyl)pyridin-4-yl]oxy}phenyl)amino]pyrimidin-4-yl}-3-(trifluoromethyl)phenol]: 500 to 2000 nM; for `COc1ccc(-c2cc(Nc3ccc(Oc4ccnc(C(F)(F)F)c4)cc3)nc(N)n2)cc1OC` [Example 189, 6-(3,4-dimethoxyphenyl)-N4*-(4-{[2-(trifluoromethyl)pyridin-4-yl]oxy}phenyl)pyrimidine-2,4-diamine]: 500 to 2000 nM.
Same read-out and setting: the same measure for `Nc1nc(Nc2ccc(Oc3ccnc(C(F)(F)F)c3)cc2)cc(-c2ccccc2N)n1` [Example 194, 6-(2-aminophenyl)-N4*-(4-{[2-(trifluoromethyl)pyridin-4-yl]oxy}phenyl)pyrimidine-2,4-diamine]: 500 to 2000 nM.

The test is the same for the next values; noted with them: Homo sapiens, HCT-116, 72 h compound exposure, greater than 2 μM.
Consider `COc1cc(-c2cc(Nc3ccc(Oc4ccnc(C#N)c4)cc3)nc(N)n2)ccc1NC(=O)OC(C)(C)C` [Example 178, tert-butyl {4-[2-amino-6-({4-[(2-cyanopyridin-4-yl)oxy]phenyl}amino)pyrimidin-4-yl]-2-methoxyphenyl}carbamate], for which the IC50 was more than 2000 nM.

The same test, now with this note: Homo sapiens, HCT-116, 72 h compound exposure, less than or equal to 500 nM.
`CCOc1ccccc1-c1cc(Nc2ccc(Oc3ccnc(C(F)(F)F)c3)cc2)nc(N)n1` [Example 157, 6-(2-ethoxyphenyl)-N4*-(4-{[2-(trifluoromethyl)pyridin-4-yl]oxy}phenyl) pyrimidine-2,4-diamine] had an IC50 not above 500 nM.
In turn, `Cc1ccc(F)c(-c2cc(Nc3ccc(Oc4ccnc(C(F)(F)F)c4)cc3)nc(N)n2)c1` [Example 158, 6-(2-fluoro-5-methylphenyl)-N4*-(4-{[2-(trifluoromethyl)pyridin-4-yl]oxy}phenyl)pyrimidine-2,4-diamine] gave an IC50 not above 500 nM.
On the same count and under the same terms, in the case of `Nc1nc(Nc2ccc(Oc3ccnc(C(F)(F)F)c3)cc2)cc(-c2cccc(F)c2F)n1` [Example 159, 6-(2,3-difluorophenyl)-N4*-(4-{[2-(trifluoromethyl)pyridin-4-yl]oxy}phenyl)pyrimidine-2,4-diamine] it was not above 500 nM.
Same read-out and setting: the same measure for `Nc1nc(Nc2ccc(Oc3ccnc(C(F)(F)F)c3)cc2)cc(-c2cc(F)ccc2F)n1` [Example 160, 6-(2,5-difluorophenyl)-N4*-(4-{[2-(trifluoromethyl)pyridin-4-yl]oxy}phenyl)pyrimidine-2,4-diamine]: not above 500 nM.
Consider `Nc1nc(Nc2ccc(Oc3ccnc(C(F)(F)F)c3)cc2)cc(-c2ccccc2OC(F)(F)F)n1` [Example 161, 6-[2-(trifluoromethoxy)phenyl]-N4*-(4-{[2-(trifluoromethyl)pyridin-4-yl]oxy}phenyl)pyrimidine-2,4-diamine], for which the IC50 is not above 500 nM.
Same read-out and setting: in the case of `CC(C)c1ccccc1-c1cc(Nc2ccc(Oc3ccnc(C(F)(F)F)c3)cc2)nc(N)n1` [Example 162, 6-(2-isopropylphenyl)-N4*- (4-{[2-(trifluoromethyl)pyridin-4-yl]oxy}phenyl) pyrimidine-2,4-diamine] it was not above 500 nM; in that of `CCc1ccccc1-c1cc(Nc2ccc(Oc3ccnc(CN)c3)cc2)nc(N)n1` [Example 163, N4*-(4-{[2-(aminomethyl)pyridin-4-yl]oxy}phenyl)-6-(2-ethylphenyl)pyrimidine-2,4-diamine], not above 500 nM.
Turning to `Nc1ccc(-c2cc(Nc3ccc(Oc4ccnc(C(F)(F)F)c4)cc3)nc(N)n2)cc1` [Example 164, 6-(4-aminophenyl)-N4*-(4-{[2-(trifluoromethyl)pyridin-4-yl]oxy}phenyl) pyrimidine-2,4-diamine hydrochloride], the IC50 is not above 500 nM.
Still for that read-out and setting: in the case of `COc1cc(-c2cc(Nc3ccc(Oc4ccnc(C(F)(F)F)c4)cc3)nc(N)n2)ccc1O` [Example 166, 4-{2-amino-6-[(4-{[2-(trifluoromethyl)pyridin-4-yl]oxy}phenyl)amino]pyrimidin-4-yl}-2-methoxyphenol] it was not above 500 nM; in that of `Nc1nc(Nc2ccc(Oc3ccnc(C(F)(F)F)c3)cc2)cc(-c2cccc(O)c2)n1` [Example 167, 3-{2-amino-6-[(4-{[2-(trifluoromethyl)pyridin-4-yl]oxy}phenyl)amino]pyrimidin-4-yl}phenol], not above 500 nM.
With `COc1ccc(-c2cc(Nc3ccc(Oc4ccnc(C(F)(F)F)c4)cc3)nc(N)n2)cc1N` [Example 168, 6-(3-amino-4-methoxyphenyl)-N4*-(4-{[2-(trifluoromethyl)pyridin-4-yl]oxy}phenyl) pyrimidine-2,4-diamine], the IC50 is not above 500 nM.
As for `Nc1cccc(-c2cc(Nc3ccc(Oc4ccnc(C(F)(F)F)c4)cc3)nc(N)n2)c1` [Example 170, 6-(3-aminophenyl)-N4*-(4-{[2-(trifluoromethyl)pyridin-4-yl]oxy}phenyl) pyrimidine-2,4-diamine hydrochloride], the IC50 was not above 500 nM.
On the same count and under the same terms, the same measure for `COc1cc(-c2cc(Nc3ccc(Oc4ccnc(C#N)c4)cc3)nc(N)n2)ccc1O` [Example 171, 4-(4-{[2-amino-6-(4-hydroxy-3-methoxyphenyl)pyrimidin-4-yl]amino}phenoxy)pyridine-2-carbonitrile]: not above 500 nM; for `COc1cc(-c2cc(Nc3ccc(Oc4ccnc(C(N)=O)c4)cc3)nc(N)n2)ccc1N` [Example 173, 4-(4-{[2-amino-6-(4-amino-3-methoxyphenyl)pyrimidin-4-yl]amino}phenoxy)pyridine-2-carboxamide]: not above 500 nM; for `Cc1cc(O)ccc1-c1cc(Nc2ccc(Oc3ccnc(C(F)(F)F)c3)cc2)nc(N)n1` [Example 174, 4-{2-amino-6-[(4-{[2-(trifluoromethyl)pyridin-4-yl]oxy}phenyl)amino]pyrimidin-4-yl}-3-methylphenol]: not above 500 nM.
Take `Nc1nc(Nc2ccc(Oc3ccnc(C(F)(F)F)c3)cc2)cc(-c2ccccc2CO)n1` [Example 175, (2-{2-amino-6-[(4-{[2-(trifluoromethyl)pyridin-4-yl]oxy}phenyl)amino]pyrimidin-4-yl}phenyl) methanol]: the IC50 was not above 500 nM.
Molecule `Nc1nc(Nc2ccc(Oc3ccnc(C(F)(F)F)c3)cc2)cc(-c2ccc(N)c(F)c2)n1` [Example 177, 6-(4-amino-3-fluorophenyl)-N4*-(4-{[2-(trifluoromethyl)pyridin-4-yl]oxy}phenyl)pyrimidine-2,4-diamine] had an IC50 not above 500 nM.
Still for that read-out and setting: the same measure for `Cc1cc(-c2cc(Nc3ccc(Oc4ccnc(C(F)(F)F)c4)cc3)nc(N)n2)ccc1N` [Example 180, 6-(4-amino-3-methylphenyl)-N4*-(4-{[2-(trifluoromethyl)pyridin-4-yl]oxy}phenyl)pyrimidine-2,4-diamine]: not above 500 nM; for `Nc1ccc(-c2cc(Nc3ccc(Oc4ccnc(C(F)(F)F)c4)cc3)nc(N)n2)cn1` [Example 181, 6-(6-aminopyridin-3-yl)-N4*-(4-{[2-(trifluoromethyl)pyridin-4-yl]oxy}phenyl)pyrimidine-2,4-diamine]: not above 500 nM; for `N#Cc1cc(Oc2ccc(Nc3cc(-c4ccc(N)nc4)nc(N)n3)cc2)ccn1` [Example 183, 4-(4-{[2-amino-6-(6-aminopyridin-3-yl)pyrimidin-4-yl]amino}phenoxy)pyridine-2-carbonitrile]: not above 500 nM.
In turn, `COc1cc(-c2cc(Nc3ccc(Oc4ccnc(C(F)(F)F)c4)cc3)nc(N)n2)ccc1OS(N)(=O)=O` [Example 185, 4-{2-amino-6-[(4-{[2-(trifluoromethyl)pyridin-4-yl]oxy}phenyl)amino]pyrimidin-4-yl}-2-methoxyphenyl sulfamate] gave an IC50 not above 500 nM.
Take `Nc1nc(Nc2ccc(Oc3ccnc(C(F)(F)F)c3)cc2)cc(-c2ccc(-c3ccccc3)cc2)n1` [Example 187, 6-biphenyl-4-yl-N4*-(4-{[2-(trifluoromethyl)pyridin-4-yl]oxy}phenyl) pyrimidine-2,4-diamine]: the IC50 was not above 500 nM.
As to `Nc1nc(Nc2ccc(Oc3ccnc(C(F)(F)F)c3)cc2)cc(-c2cccs2)n1` [Example 188, 6-(2-thienyl)-N4*-(4-{[2-(trifluoromethyl)pyridin-4-yl]oxy}phenyl)pyrimidine-2,4-diamine], the IC50 is not above 500 nM.
Same read-out and setting: in the case of `COc1ccc(-c2cc(Nc3ccc(Oc4ccnc(C(F)(F)F)c4)cc3)nc(N)n2)cc1` [Example 190, 6-(4-methoxyphenyl)-N4*-(4-{[2-(trifluoromethyl)pyridin-4-yl]oxy}phenyl)pyrimidine-2,4-diamine] it was not above 500 nM; in that of `COc1ccc(-c2cc(Nc3ccc(Oc4ccnc(C(F)(F)F)c4)cc3)nc(N)n2)cn1` [Example 191, 6-(6-methoxypyridin-3-yl)-N4*-(4-{[2-(trifluoromethyl)pyridin-4-yl]oxy}phenyl)pyrimidine-2,4-diamine], not above 500 nM; in that of `Nc1nc(Nc2ccc(Oc3ccnc(C(F)(F)F)c3)cc2)cc(-c2cccc(F)c2)n1` [Example 192, 6-(3-fluorophenyl)-N4*-(4-{[2-(trifluoromethyl)pyridin-4-yl]oxy}phenyl)pyrimidine-2,4-diamine], not above 500 nM.
Still for that read-out and setting: in the case of `Nc1nc(Nc2ccc(Oc3ccnc(C(F)(F)F)c3)cc2)cc(-c2ccccc2F)n1` [Example 193, 6-(2-fluorophenyl)-N4*-(4-{[2-(trifluoromethyl)pyridin-4-yl]oxy}phenyl)pyrimidine-2,4-diamine] it was not above 500 nM; in that of `Nc1nc(Nc2ccc(Oc3ccnc(C(F)(F)F)c3)cc2)cc(-c2ccoc2)n1` [Example 195, 6-(3-furyl)-N4*-(4-{[2-(trifluoromethyl)pyridin-4-yl]oxy}phenyl)pyrimidine-2,4-diamine], not above 500 nM.
As for `Nc1nc(Nc2ccc(Oc3ccnc(C(F)(F)F)c3)cc2)cc(-c2ccc(F)cc2)n1` [Example 196, 6-(4-fluorophenyl)-N4*-(4-{[2-(trifluoromethyl)pyridin-4-yl]oxy}phenyl)pyrimidine-2,4-diamine], the IC50 was not above 500 nM.
